#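 Five compound concentrations were applied to cells in 96-well plates for 48 hours; endpoints were derived by simple linear interpolation of the resulting dose-response curve. TGI is the concentration that stops growth completely.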
# Key:
# Assay in all cases: NCI-60 cell line screen, 48 h
# [1] = system: SF-295 CNS
# [2] = system: 786-0 renal
# [3] = system: OVCAR-4 ovarian
# [4] = system: CCRF-CEM leukemia
# [5] = system: SR leukemia
# [6] = system: HL-60(TB) leukemia
# [7] = system: K-562 leukemia
# [8] = system: SNB-75 CNS
# [9] = system: PC-3 prostate
# [10] = system: HT29 colon
# [11] = system: OVCAR-8 ovarian
# [12] = system: HCC-2998 colon
# [13] = system: SK-OV-3 ovarian
# [14] = system: A549 NSCLC
# [15] = system: UO-31 renal
# [16] = system: SW-620 colon
# [17] = system: ACHN renal
# [18] = system: EKVX NSCLC
# [19] = system: MDA-MB-435
# [20] = system: RPMI-8226 leukemia
# [21] = system: MOLT-4 leukemia
# [22] = system: HOP-92 NSCLC
# [23] = system: A498 renal
# [24] = system: KM12 colon
# [25] = system: IGROV1 ovarian
# [26] = system: SK-MEL-28 melanoma
# [27] = system: RXF 393 renal
# [28] = system: SN12C renal
# [29] = system: NCI/ADR-RES ovarian
# [30] = system: SK-MEL-2 melanoma
# [31] = system: MDA-MB-231 breast
# [32] = system: T-47D breast
# [33] = system: COLO 205 colon
# [34] = system: UACC-62 melanoma
# [35] = system: SF-268 CNS
# [36] = system: CAKI-1 renal
# [37] = system: MCF7 breast
# [38] = system: HCT-15 colon
# [39] = system: NCI-H23 lung
# [40] = system: OVCAR-5 ovarian
# [41] = system: U251 CNS
# [42] = system: M14 melanoma
# [43] = system: SK-MEL-5 melanoma
# [44] = system: NCI-H460 lung
# [45] = system: HOP-62 NSCLC
# [46] = system: DU-145 prostate
# [47] = system: OVCAR-3 ovarian
# [48] = system: TK-10 renal
# [49] = system: NCI-H226 lung
# [50] = system: BT-549 breast
# [51] = system: LOX IMVI melanoma
# [52] = system: NCI-H522 lung
# [53] = system: SF-539 CNS
# [54] = system: UACC-257 melanoma
# [55] = system: HCT-116 colon
# [56] = system: MALME-3M melanoma
# [57] = system: SNB-19 CNS
structure (smiles),measurement,setting,value
CC(C)(C)c1cc(-c2cc(C(C)(C)C)n(-c3ccccc3)n2)nn1-c1ccccc1,TGI,[1],> 100 µM
same,TGI,[2],> 100 µM
same,TGI,[3],> 100 µM
same,TGI,[4],> 100 µM
same,TGI,[5],> 100 µM
same,TGI,[6],> 100 µM
same,TGI,[7],> 100 µM
same,TGI,[8],> 100 µM
same,TGI,[9],> 100 µM
same,TGI,[10],> 100 µM
same,TGI,[11],> 100000 nM
same,TGI,[12],> 100 µM
same,TGI,[13],> 100 µM
same,TGI,[14],> 100 µM
same,TGI,[15],> 100 µM
same,TGI,[16],> 100 µM
same,TGI,[17],> 100 µM
same,TGI,[18],> 100 µM
same,TGI,[19],> 100 µM
same,TGI,[20],> 100 µM
same,TGI,[21],> 100 µM
same,TGI,[22],> 100 µM
same,TGI,[23],> 100 µM
same,TGI,[24],> 100 µM
same,TGI,[25],> 100000 nM
same,TGI,[26],> 100 µM
same,TGI,[27],> 100 µM
same,TGI,[28],> 100 µM
same,TGI,[29],> 100 µM
same,TGI,[30],> 100 µM
same,TGI,[31],> 100 µM
same,TGI,[32],> 100 µM
same,TGI,[33],> 100 µM
same,TGI,[34],> 100 µM
same,TGI,[35],> 100 µM
same,TGI,[36],> 100 µM
same,TGI,[37],> 100 µM
same,TGI,[38],> 100 µM
same,TGI,[39],> 100 µM
same,TGI,[40],> 100 µM
same,TGI,[41],> 100 µM
same,TGI,[42],> 100 µM
same,TGI,[43],> 100 µM
same,TGI,[44],> 100 µM
same,TGI,[45],> 100 µM
same,TGI,[46],> 100 µM
same,TGI,[47],> 100 µM
same,TGI,[48],> 100 µM
same,TGI,[49],> 100 µM
same,TGI,[50],> 100 µM
same,TGI,[51],> 100 µM
same,TGI,[52],> 100 µM
same,TGI,[53],> 100 µM
same,TGI,[54],> 100 µM
same,TGI,[55],> 100 µM
Cc1sc2nc(-c3ccc(Cl)c([N+](=O)[O-])c3)c(/C=N/N=C(N)N)n2c1C,TGI,[1],3.4 µM
same,TGI,[2],1.92 µM
same,TGI,[10],2.63 µM
same,TGI,[11],2030 nM
same,TGI,[12],2.64 µM
same,TGI,[13],3.13 µM
same,TGI,[15],3.07 µM
same,TGI,[17],2.77 µM
same,TGI,[18],3.14 µM
same,TGI,[19],3.11 µM
same,TGI,[23],3.06 µM
same,TGI,[24],1.87 µM
same,TGI,[56],3.68 µM
same,TGI,[25],2440 nM
same,TGI,[26],2.18 µM
same,TGI,[27],3.13 µM
same,TGI,[29],6.59 µM
same,TGI,[32],4.76 µM
same,TGI,[33],1.31 µM
same,TGI,[38],2.65 µM
same,TGI,[40],2.93 µM
same,TGI,[42],3.29 µM
same,TGI,[45],1.7 µM
same,TGI,[47],3.5 µM
same,TGI,[48],3.2 µM
same,TGI,[50],3.07 µM
same,TGI,[51],2.44 µM
same,TGI,[52],3.34 µM
same,TGI,[53],2.99 µM
COc1cc(C2c3cc(O)c(OC)cc3C3OCC2C3CO)ccc1O (stereo unspecified),TGI,[1],> 100 µM
same,TGI,[2],> 100 µM
same,TGI,[3],> 100 µM
same,TGI,[5],> 100 µM
same,TGI,[6],> 100 µM
same,TGI,[7],> 100 µM
same,TGI,[8],> 100 µM
same,TGI,[9],> 100 µM
same,TGI,[10],> 100 µM
same,TGI,[12],> 100 µM
same,TGI,[13],> 100 µM
same,TGI,[14],> 100 µM
same,TGI,[15],> 100 µM
same,TGI,[57],> 100 µM
same,TGI,[16],> 100 µM
same,TGI,[17],> 100 µM
same,TGI,[18],> 100 µM
same,TGI,[19],> 100 µM
same,TGI,[20],> 100 µM
same,TGI,[21],> 100 µM
same,TGI,[22],> 100 µM
same,TGI,[23],> 100 µM
same,TGI,[24],> 100 µM
same,TGI,[56],> 100 µM
same,TGI,[26],> 100 µM
same,TGI,[27],> 100 µM
same,TGI,[29],> 100 µM
same,TGI,[30],> 100 µM
same,TGI,[31],> 100 µM
same,TGI,[32],> 100 µM
same,TGI,[33],> 100 µM
same,TGI,[34],> 100 µM
same,TGI,[35],> 100 µM
same,TGI,[36],> 100 µM
same,TGI,[37],> 100 µM
same,TGI,[38],> 100 µM
same,TGI,[39],> 100 µM
same,TGI,[40],> 100 µM
same,TGI,[41],> 100 µM
same,TGI,[42],> 100 µM
same,TGI,[43],> 100 µM
same,TGI,[44],> 100 µM
same,TGI,[45],> 100 µM
same,TGI,[46],> 100 µM
same,TGI,[47],> 100 µM
same,TGI,[48],> 100 µM
same,TGI,[49],> 100 µM
same,TGI,[50],> 100 µM
same,TGI,[51],> 100 µM
same,TGI,[52],> 100 µM
same,TGI,[53],> 100 µM
same,TGI,[55],> 100 µM

# From PubChem BioAssay (NCI)
